Assay results reported in the kinase profiling compilation of Christmann-Franck et al. (2016).

How the values were obtained:
Test in all cases: KINOMEscan competition binding
Settings in all cases: compound 10.0 µM
[1] = tested on: ABL1 (human), P00519 [M351T]
ABL2 (human) = ABL2 (human) (UniProt P42684)
BMPR1A (human) = BMPR1A (human) (UniProt P36894)
BMPR2 (human) = BMPR2 (human) (UniProt Q13873)
CAMK4 (human) = CAMK4 (human) (UniProt Q16566)
CAMKK1 (human) = CAMKK1 (human) (UniProt Q8N5S9)
CDC42BPB (human) = CDC42BPB (human) (UniProt Q9Y5S2)
CDK11B (human) = CDK11B (human) (UniProt P21127)
CDK17 (human) = CDK17 (human) (UniProt Q00537)
CDK18 (human) = CDK18 (human) (UniProt Q07002)
CDK8 (human) = CDK8 (human) (UniProt P49336)
CDKL2 (human) = CDKL2 (human) (UniProt Q92772)
CSNK1D (human) = CSNK1D (human) (UniProt P48730)
EIF2AK2 (human) = EIF2AK2 (human) (UniProt P19525)
EPHB2 (human) = EPHB2 (human) (UniProt P29323)
FYN (human) = FYN (human) (UniProt P06241)
IRAK3 (human) = IRAK3 (human) (UniProt Q9Y616)
[2] = tested on: KIT (human), P10721 [D816V]
MAP2K3 (human) = MAP2K3 (human) (UniProt P46734)
MAP2K6 (human) = MAP2K6 (human) (UniProt P52564)
MAP3K3 (human) = MAP3K3 (human) (UniProt Q99759)
MAPKAPK5 (human) = MAPKAPK5 (human) (UniProt Q8IW41)
MARK1 (human) = MARK1 (human) (UniProt Q9P0L2)
MLTK (human) = MLTK (human) (UniProt Q9NYL2)
MYLK (human) = MYLK (human) (UniProt Q15746)
MYO3B (human) = MYO3B (human) (UniProt Q8WXR4)
NEK9 (human) = NEK9 (human) (UniProt Q8TD19)
PAK4 (human) = PAK4 (human) (UniProt O96013)
PDGFRB (human) = PDGFRB (human) (UniProt P09619)
PIK3CD (human) = PIK3CD (human) (UniProt O00329)
PIM1 (human) = PIM1 (human) (UniProt P11309)
PRKACA (human) = PRKACA (human) (UniProt P17612)
PRKD2 (human) = PRKD2 (human) (UniProt Q9BZL6)
RET (human) = RET (human) (UniProt P07949)
RPS6KA1 KD1 (human) = RPS6KA1 KD1 (human) (UniProt Q15418)
SRC (human) = SRC (human) (UniProt P12931)
STK11 (human) = STK11 (human) (UniProt Q15831)
STK33 (human) = STK33 (human) (UniProt Q9BYT3)
TEC (human) = TEC (human) (UniProt P42680)
[3] = molecular target: TYK2 JH2 pseudokinase (human) (UniProt P29597)

Sequence of FYN (human) (P06241 whole entry, looked up): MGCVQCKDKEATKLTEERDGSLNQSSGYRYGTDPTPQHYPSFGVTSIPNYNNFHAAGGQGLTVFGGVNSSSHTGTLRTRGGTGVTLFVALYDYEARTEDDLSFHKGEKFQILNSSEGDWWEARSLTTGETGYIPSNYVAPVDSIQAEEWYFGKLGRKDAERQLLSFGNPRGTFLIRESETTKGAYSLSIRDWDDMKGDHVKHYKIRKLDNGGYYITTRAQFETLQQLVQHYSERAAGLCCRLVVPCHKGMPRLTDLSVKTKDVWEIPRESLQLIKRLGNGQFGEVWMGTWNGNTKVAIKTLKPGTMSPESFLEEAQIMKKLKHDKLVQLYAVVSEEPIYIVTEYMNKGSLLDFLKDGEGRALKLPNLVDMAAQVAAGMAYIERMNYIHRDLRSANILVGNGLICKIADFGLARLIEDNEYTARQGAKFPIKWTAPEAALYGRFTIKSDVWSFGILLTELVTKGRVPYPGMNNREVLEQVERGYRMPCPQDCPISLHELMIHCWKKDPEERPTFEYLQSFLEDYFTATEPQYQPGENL
Sequence of CAMKK1 (human) (Q8N5S9 whole entry, looked up): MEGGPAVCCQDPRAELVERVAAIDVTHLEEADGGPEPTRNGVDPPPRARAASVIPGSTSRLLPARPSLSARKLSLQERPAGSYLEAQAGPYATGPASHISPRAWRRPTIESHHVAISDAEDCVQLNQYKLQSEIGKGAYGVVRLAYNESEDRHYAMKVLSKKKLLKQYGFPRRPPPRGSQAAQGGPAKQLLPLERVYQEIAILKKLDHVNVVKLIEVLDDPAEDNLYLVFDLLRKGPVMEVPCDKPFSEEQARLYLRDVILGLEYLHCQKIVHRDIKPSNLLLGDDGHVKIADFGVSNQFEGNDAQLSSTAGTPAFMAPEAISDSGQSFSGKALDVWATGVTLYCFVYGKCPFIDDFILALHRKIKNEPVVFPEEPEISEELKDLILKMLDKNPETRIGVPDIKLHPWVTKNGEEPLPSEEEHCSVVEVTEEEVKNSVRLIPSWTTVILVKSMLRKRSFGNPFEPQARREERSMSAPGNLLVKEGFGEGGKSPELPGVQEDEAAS
Sequence of MYLK (human) (Q15746 whole entry, looked up): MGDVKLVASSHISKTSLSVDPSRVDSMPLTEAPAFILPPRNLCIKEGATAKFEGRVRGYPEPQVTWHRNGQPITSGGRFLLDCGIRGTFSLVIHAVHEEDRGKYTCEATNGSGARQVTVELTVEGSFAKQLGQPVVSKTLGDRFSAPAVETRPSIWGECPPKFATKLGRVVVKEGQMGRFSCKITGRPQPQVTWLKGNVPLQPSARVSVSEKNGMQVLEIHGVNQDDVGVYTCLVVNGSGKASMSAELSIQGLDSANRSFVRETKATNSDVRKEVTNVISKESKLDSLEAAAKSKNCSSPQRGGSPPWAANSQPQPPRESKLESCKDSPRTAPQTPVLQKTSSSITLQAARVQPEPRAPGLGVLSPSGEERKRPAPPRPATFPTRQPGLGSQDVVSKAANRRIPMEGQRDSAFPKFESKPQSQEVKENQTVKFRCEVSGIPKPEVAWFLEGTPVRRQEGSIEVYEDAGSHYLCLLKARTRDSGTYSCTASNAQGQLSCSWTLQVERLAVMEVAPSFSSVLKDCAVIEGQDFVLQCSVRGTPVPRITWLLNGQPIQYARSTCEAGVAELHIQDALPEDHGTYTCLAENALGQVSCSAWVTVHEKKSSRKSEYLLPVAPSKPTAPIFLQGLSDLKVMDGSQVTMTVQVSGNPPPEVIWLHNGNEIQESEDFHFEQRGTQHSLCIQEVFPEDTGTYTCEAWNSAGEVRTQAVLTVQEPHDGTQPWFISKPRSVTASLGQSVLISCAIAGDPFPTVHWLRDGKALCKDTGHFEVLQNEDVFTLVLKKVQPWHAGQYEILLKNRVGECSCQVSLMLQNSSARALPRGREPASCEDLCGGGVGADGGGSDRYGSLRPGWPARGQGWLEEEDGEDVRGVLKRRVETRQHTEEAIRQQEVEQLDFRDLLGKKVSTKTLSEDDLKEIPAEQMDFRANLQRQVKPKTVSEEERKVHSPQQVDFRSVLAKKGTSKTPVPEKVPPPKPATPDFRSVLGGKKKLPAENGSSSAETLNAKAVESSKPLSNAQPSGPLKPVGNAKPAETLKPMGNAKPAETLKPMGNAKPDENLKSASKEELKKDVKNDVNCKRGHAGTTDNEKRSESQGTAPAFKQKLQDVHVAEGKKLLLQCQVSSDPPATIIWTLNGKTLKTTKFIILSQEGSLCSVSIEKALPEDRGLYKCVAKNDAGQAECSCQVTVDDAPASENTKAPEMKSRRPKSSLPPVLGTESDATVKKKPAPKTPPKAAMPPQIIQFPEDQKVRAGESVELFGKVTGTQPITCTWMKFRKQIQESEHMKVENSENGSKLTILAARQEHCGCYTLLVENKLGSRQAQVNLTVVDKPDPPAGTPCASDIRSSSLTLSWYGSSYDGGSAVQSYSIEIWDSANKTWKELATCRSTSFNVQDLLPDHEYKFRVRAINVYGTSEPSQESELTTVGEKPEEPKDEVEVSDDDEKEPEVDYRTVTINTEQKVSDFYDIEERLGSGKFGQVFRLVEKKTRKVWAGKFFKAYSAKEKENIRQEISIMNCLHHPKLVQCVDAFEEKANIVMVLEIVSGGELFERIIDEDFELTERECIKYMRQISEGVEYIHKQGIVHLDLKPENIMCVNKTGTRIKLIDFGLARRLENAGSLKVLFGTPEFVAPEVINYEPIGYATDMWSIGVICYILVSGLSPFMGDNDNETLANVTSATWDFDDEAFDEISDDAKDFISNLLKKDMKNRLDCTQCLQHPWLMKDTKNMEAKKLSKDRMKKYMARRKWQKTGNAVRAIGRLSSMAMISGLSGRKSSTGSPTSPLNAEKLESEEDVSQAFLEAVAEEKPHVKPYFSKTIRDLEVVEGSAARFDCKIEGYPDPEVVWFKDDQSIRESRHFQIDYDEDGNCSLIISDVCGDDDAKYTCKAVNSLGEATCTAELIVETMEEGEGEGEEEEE
Sequence of RET (human) (P07949 whole entry, looked up): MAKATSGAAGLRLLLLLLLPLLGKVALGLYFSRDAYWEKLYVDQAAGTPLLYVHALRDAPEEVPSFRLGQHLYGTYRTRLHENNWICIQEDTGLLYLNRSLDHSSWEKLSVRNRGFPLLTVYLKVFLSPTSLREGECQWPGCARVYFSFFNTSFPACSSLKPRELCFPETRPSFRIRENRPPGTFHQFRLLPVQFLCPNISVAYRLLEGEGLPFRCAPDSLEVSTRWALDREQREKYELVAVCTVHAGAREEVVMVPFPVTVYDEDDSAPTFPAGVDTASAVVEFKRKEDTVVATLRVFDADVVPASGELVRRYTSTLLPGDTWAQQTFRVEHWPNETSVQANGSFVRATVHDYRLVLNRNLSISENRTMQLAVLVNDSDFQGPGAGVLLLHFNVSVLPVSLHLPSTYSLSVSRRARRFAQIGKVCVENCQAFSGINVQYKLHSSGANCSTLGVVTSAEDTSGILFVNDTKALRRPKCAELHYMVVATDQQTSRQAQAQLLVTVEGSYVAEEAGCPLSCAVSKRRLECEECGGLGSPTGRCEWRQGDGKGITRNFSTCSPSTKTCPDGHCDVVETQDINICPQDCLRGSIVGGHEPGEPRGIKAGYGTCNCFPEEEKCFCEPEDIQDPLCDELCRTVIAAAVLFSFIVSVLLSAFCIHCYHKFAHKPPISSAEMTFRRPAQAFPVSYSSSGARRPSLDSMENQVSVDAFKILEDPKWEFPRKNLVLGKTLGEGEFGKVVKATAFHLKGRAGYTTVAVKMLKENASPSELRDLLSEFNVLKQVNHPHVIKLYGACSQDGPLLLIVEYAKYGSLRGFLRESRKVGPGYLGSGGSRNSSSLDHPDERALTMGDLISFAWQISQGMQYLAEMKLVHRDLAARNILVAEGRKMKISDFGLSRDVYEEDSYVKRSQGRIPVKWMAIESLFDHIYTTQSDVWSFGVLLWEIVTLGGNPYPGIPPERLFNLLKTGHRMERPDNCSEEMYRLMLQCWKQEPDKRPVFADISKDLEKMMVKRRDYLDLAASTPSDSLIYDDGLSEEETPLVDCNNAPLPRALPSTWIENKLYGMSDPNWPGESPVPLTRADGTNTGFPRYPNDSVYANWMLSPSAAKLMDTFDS
Sequence of PAK4 (human) (O96013 whole entry, looked up): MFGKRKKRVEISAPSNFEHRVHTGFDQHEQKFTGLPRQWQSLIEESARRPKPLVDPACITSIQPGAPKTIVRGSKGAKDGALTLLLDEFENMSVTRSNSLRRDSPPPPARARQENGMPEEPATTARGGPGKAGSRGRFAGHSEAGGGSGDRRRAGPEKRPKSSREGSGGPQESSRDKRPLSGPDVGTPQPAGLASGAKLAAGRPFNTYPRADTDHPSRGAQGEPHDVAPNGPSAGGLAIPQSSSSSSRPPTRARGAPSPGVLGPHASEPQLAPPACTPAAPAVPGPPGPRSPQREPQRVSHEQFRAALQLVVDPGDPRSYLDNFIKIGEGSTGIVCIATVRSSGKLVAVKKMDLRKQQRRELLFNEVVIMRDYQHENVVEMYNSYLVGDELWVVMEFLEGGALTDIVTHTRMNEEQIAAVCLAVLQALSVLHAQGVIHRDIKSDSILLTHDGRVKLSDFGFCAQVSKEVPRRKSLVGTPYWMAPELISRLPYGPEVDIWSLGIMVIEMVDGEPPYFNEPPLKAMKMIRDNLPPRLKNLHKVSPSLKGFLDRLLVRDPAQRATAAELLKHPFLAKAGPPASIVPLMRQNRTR
Sequence of STK11 (human) (Q15831 whole entry, looked up): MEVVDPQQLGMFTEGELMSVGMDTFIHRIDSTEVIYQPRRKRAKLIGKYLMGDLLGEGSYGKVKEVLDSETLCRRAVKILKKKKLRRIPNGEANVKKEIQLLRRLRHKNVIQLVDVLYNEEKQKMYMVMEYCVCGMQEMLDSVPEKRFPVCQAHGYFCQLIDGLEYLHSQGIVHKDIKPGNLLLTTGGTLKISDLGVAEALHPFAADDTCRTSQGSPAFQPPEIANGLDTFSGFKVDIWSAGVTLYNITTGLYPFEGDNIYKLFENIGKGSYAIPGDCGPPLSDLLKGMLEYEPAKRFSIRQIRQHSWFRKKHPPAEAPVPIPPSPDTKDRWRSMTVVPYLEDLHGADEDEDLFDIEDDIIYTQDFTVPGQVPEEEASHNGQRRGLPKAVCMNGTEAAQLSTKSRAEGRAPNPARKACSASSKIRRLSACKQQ

| SMILES | kinase still bound, per cent of control [1] | kinase still bound, per cent of control (ABL2 (human)) | kinase still bound, per cent of control (BMPR1A (human)) | kinase still bound, per cent of control (BMPR2 (human)) | kinase still bound, per cent of control (CAMK4 (human)) | kinase still bound, per cent of control (CAMKK1 (human)) | kinase still bound, per cent of control (CDC42BPB (human)) | kinase still bound, per cent of control (CDK11B (human)) | kinase still bound, per cent of control (CDK17 (human)) | kinase still bound, per cent of control (CDK18 (human)) | kinase still bound, per cent of control (CDK8 (human)) | kinase still bound, per cent of control (CDKL2 (human)) | kinase still bound, per cent of control (CSNK1D (human)) | kinase still bound, per cent of control (EIF2AK2 (human)) | kinase still bound, per cent of control (EPHB2 (human)) | kinase still bound, per cent of control (FYN (human)) | kinase still bound, per cent of control (IRAK3 (human)) | kinase still bound, per cent of control [2] | kinase still bound, per cent of control (MAP2K3 (human)) | kinase still bound, per cent of control (MAP2K6 (human)) | further results |
| --- | --- | --- | --- | --- | --- | --- | --- | --- | --- | --- | --- | --- | --- | --- | --- | --- | --- | --- | --- | --- | --- |
| O=C1Nc2ccc(I)cc2/C1=C/c1cc(Br)c(O)c(Br)c1 | 77% | 66% | 8.8% | 100% | 100% | 7.6% | 100% | 100% | 87% | 100% | 62% | 82% | 72% | 75% | 100% | 52% | 62% | 79% | 46% | 71% | kinase still bound, per cent of control (MAP3K3 (human)): 92%; kinase still bound, per cent of control (MAPKAPK5 (human)): 100%; kinase still bound, per cent of control (MARK1 (human)): 99%; kinase still bound, per cent of control (MLTK (human)): 84%; kinase still bound, per cent of control (MYLK (human)): 16%; kinase still bound, per cent of control (MYO3B (human)): 8.6%; kinase still bound, per cent of control (NEK9 (human)): 100%; kinase still bound, per cent of control (PAK4 (human)): 82%; kinase still bound, per cent of control (PDGFRB (human)): 5.5%; kinase still bound, per cent of control (PIK3CD (human)): 81%; kinase still bound, per cent of control (PIM1 (human)): 2.8%; kinase still bound, per cent of control (PRKACA (human)): 100%; kinase still bound, per cent of control (PRKD2 (human)): 100%; kinase still bound, per cent of control (RET (human)): 100%; kinase still bound, per cent of control (RPS6KA1 KD1 (human)): 42%; kinase still bound, per cent of control (SRC (human)): 100%; kinase still bound, per cent of control (STK11 (human)): 84%; kinase still bound, per cent of control (STK33 (human)): 94%; kinase still bound, per cent of control (TEC (human)): 100%; kinase still bound, per cent of control [3]: 100% |
| C[C@@H](Oc1cc(-n2cnc3ccc(CN4CCN(C)CC4)cc32)sc1C(N)=O)c1ccccc1C(F)(F)F | 93% | 90% | 28% | 97% | 100% | 99% | 100% | 100% | 90% | 100% | 95% | 90% | 100% | 76% | 99% | 100% | 38% | 16% | 52% | 98% | kinase still bound, per cent of control (MAP3K3 (human)): 88%; kinase still bound, per cent of control (MAPKAPK5 (human)): 89%; kinase still bound, per cent of control (MARK1 (human)): 100%; kinase still bound, per cent of control (MLTK (human)): 100%; kinase still bound, per cent of control (MYLK (human)): 62%; kinase still bound, per cent of control (MYO3B (human)): 100%; kinase still bound, per cent of control (NEK9 (human)): 10%; kinase still bound, per cent of control (PAK4 (human)): 37%; kinase still bound, per cent of control (PDGFRB (human)): 9.8%; kinase still bound, per cent of control (PIK3CD (human)): 14%; kinase still bound, per cent of control (PIM1 (human)): 3%; kinase still bound, per cent of control (PRKACA (human)): 100%; kinase still bound, per cent of control (PRKD2 (human)): 27%; kinase still bound, per cent of control (RET (human)): 100%; kinase still bound, per cent of control (RPS6KA1 KD1 (human)): 29%; kinase still bound, per cent of control (SRC (human)): 100%; kinase still bound, per cent of control (STK11 (human)): 90%; kinase still bound, per cent of control (STK33 (human)): 75%; kinase still bound, per cent of control (TEC (human)): 91%; kinase still bound, per cent of control [3]: 100% |
